Experimental data published in patent publication US10274488B2, “Glycan arrays on PTFE-like aluminum coated glass slides and related methods” (Academia Sinica, priority 2008, dated 2019).

Assays:
[1] = test system: exoglucanase L3; assay: Enzymatic hydrolysis in solution with purified exoglucanase L3, MS-TOF assay; format: biochemical, Clostridium thermocellum; details: reaction in solution
Description: To verify, the exoglucanases (L3) and endoglucanase (44A) were prepared according methods well known in the literature with minor modifications. First, enzymatic hydrolysis reactions were conducted in solution with the purified enzymes using substrates 8, 9 and 10. At the completion of the reaction, the solution mixtures were transferred to the PTFE-like ACG slide, and prepared by using the same washing procedures before being subjected to MS-TOF assay.
(§1) For each carbohydrate, a specific enzyme was added: (a) is the control run without enzymes, (b) is exoglucanase L3, and (c) is endoglucanase 44A. […]
Cellulase was prepared (5 U/mL in 25 mM pH 5.05 NaOAc buffer solution). Substrate was also dissolved in NaOAc buffer solution (25 mM, pH 5.05) to give 0.5 mM substrate solution. Add 100 uL cellulase solution to 100 uL substrate solution in eppendorf to have a 2.5 U/mL cellulase solution with 0.25 mM substrate. This solution was incubated in 37° C. for 18 hours. Add 100 μL incubated solution onto the slide loaded in FAST® Frame. Put the slide in dry box to remove the water, and then use high vacuum to remove trace water. 100 μL water was used to rinse each well of the FAST® Frame multi-slide plate to solve and remove the salt of the buffer solution. Remove any residual water on the plate by high vacuum and then analyzed the slide by MALDI-TOF Ultra-Flex II.
(§2) The genomic DNA of Sulfolobus solfataricus (ATCC 35092) and Clostridium thermocellum (ATCC 27405) were obtained from the ATCC biological resource center. The Sso7d (NCBI accession number: AAK42090) gene fragment was amplified directly from the Sulfolobus solfataricus genome by polymerase chain reaction (PCR) with forward 5′ […] 3′ (SEQ ID NO: 1) and reverse 5′ […] 3′ (SEQ ID NO: 2) primers. The PCR product encoding Sso7d was digested with NdeI and BamHI and subsequently cloned into expression vector pET-28a (Novagen) to generate pET-28-Sso7d. […]

[2] = test system: exoglucanase L3; assay: Enzymatic hydrolysis on the PTFE-like ACG surface with exoglucanase L3, MS-TOF assay; format: biochemical, Clostridium thermocellum; details: substrate immobilized on the PTFE-like ACG surface, 24 hours of incubation
Description: as §1
For comparison and as illustrated according to implementations shown in FIG. 23, substrate 8, 9, and 10 were immobilized on the PTFE-like ACG surface and carried out the cellulase hydrolysis on the surface directly, after the same washing procedures, these slides were subjected to MS-TOF assay. […] The endoglucanase 44A can't accept compound 8 or 9 as a substrate. […] From the above results, the cellotetraose substrate 10 was the best carbohydrate to create array on the PTFE-like ACG surface for the experiments conducted. By using this array, the activity and specificity of unknown cellulase may be examined.
Cellulase was prepared (5 U/mL in 25 mM pH 5.05 NaOAc buffer solution). Substrate was also dissolved in NaOAc buffer solution (25 mM, pH 5.05) to give 0.5 mM substrate solution. Add 50 μL cellulase solution to 50 μL substrate solution onto the glass slide which was loaded in FAST® Frame multi-slide plate to have a 2.5 U/mL cellulase solution with 0.25 mM substrate. […] Put the slide in dry box to remove the water, and then use high vacuum to remove trace water. 100 uL water was used to rinse each well of the FAST® Frame multi-slide plate to solve and remove the salt of the buffer solution. Remove any residual water on the plate by high vacuum and then analyzed the slide by MALDI-TOF Ultra-Flex II.
as §2, with “primers.” for “primers. The PCR product encoding Sso7d was digested with NdeI and BamHI and subsequently cloned into expression vector pET-28a (Novagen) to generate pET-28-Sso7d.”

Structure (SMILES)	Cleavage of the substrate by exoglucanase L3 (in words) [1]	Cleavage of the substrate by exoglucanase L3 (in words) [2]
O=C(NCCCCCO[C@@H]1O[C@H](CO)[C@@H](O[C@@H]2O[C@H](CO)[C@@H](O)[C@H](O)[C@H]2O)[C@H](O)[C@H]1O)OCCCC(F)(F)C(F)(F)C(F)(F)C(F)(F)C(F)(F)C(F)(F)C(F)(F)C(F)(F)F [Compound 8, [(4,4,5,5,6,6,7,7,8,8,9,9,10,10,11,11,12,12,12-nonadecafluorododecoxycarbonyl-amino)pentyl] ß-D-cellobioside]	slowly	only cleaved a fraction
O=C(NCCCCCO[C@@H]1O[C@H](CO)[C@@H](O[C@@H]2O[C@H](CO)[C@@H](O[C@@H]3O[C@H](CO)[C@@H](O)[C@H](O)[C@H]3O)[C@H](O)[C@H]2O)[C@H](O)[C@H]1O)OCCCC(F)(F)C(F)(F)C(F)(F)C(F)(F)C(F)(F)C(F)(F)C(F)(F)C(F)(F)C(F)(F)F [Compound 9, [(4,4,5,5,6,6,7,7,8,8,9,9,10,10,11,11,12,12,12-nonadecafluorododecoxycarbonyl-amino)pentyl] ß-D-glucopyranosyl-(1→4)-ß-D-glucopyranosyl-(1→4)- -ß-D-glucopyranoside]	quickly	cleaved the cellobiose quickly
